Among the data in ChEMBL document CHEMBL1159352, “Reaction of irofulven with zinc and acid” (J Nat Prod, 2003) are IC50 values, retold here.

What is called IC50 is the concentration that inhibits the measured activity by half. A high value points to weaker potency.

The subject of the experiment is HL-60. In words: Cytotoxicity against human HL60 cells after 48 hrs by trypan blue exclusion assay. Type of experiment: functional, cell-based. The settings on record: HL-60, 48 h.
In turn, `CC1=C(CO)c2c(C)c(CCO)c(C)c(O)c2C1` came in with an IC50 of 120 µM.

Turning to `C=C1C(C)=Cc2c(O)c(C)c(CCOC(C)=O)c(C)c21`, half-maximal inhibition (IC50) was put at 110 µM.

As to `CC1=C(CO)c2c(C)c(CCO)c(C)c(O)c2C1O` (stereo not given), the IC50 is 114 µM. The IC50 values of the last two compounds are within 1.5-fold of each other.

For `CC1=C2C(=C[C@@](C)(CO)[C@@H]2O)C(=O)[C@](C)(O)C12CC2` [ILLUDIN], the IC50 was determined as 0.003 µM.

With `C=C1C(C)=Cc2c(O)c(C)c(CCO)c(C)c21`, the IC50 amounted to 130 µM. This IC50 is about 43000-fold higher than that of the compound before.
